Data published in PMC10388362, “Fluorescent Ligands Enable Target Engagement Studies for the Intracellular Allosteric Binding Site of the Chemokine Receptor CXCR2” (Journal of Medicinal Chemistry, 2023).

Assays:
[1] = molecular target: T1, CXCR2 (Homo sapiens, UniProt P25025); assay: Membrane-based NanoBRET competition kinetic assay with 9a; settings: kinetic competitive binding with 9a (50 nM), CXCR2_Nluc membranes; read-out: residence time tr
T1 construct: Promega pNLF1-C (Nluc) #CXCR20TN00; host or cells: HEK293T, transient transfection (PEI)
T1 sequence (P25025 1-360): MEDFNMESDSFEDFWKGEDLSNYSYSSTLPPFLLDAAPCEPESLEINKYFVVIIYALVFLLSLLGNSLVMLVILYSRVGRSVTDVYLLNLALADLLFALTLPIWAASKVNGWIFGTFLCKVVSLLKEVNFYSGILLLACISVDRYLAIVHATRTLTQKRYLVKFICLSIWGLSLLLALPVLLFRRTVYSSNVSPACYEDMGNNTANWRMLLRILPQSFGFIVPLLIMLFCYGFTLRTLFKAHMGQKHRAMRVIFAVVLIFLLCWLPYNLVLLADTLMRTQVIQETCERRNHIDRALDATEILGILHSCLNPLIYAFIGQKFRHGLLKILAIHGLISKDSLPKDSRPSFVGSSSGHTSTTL
Description: 2.5 μL of a solution of the fluorescent ligand (9a) diluted in the assay buffer (final assay concentration: 50 nM) and 2.5 μL of a solution of the competing nonlabeled ligands (final assay concentrations: […]) or 3 for determining nonspecific binding (final assay concentration: 25 μM) in the assay buffer were transferred to a 384-well plate. […] Thereafter, 20 μL of the membrane preparation (2 μg total protein/well) was added and BRET ratios were measured with a CLARIOstar microplate reader using 620/10 and 475/30 nm emission filters over time. Specific BRET ratios were calculated as a difference of total and nonspecific binding. The obtained data were analyzed using the kinetics of the competitive binding algorithm in PRISM9.5 (GraphPad) to determine competition binding kinetics.

[2] = molecular target: T1, CXCR2; assay: Fluorescence microscopy, displacement of 9a in HEK293 cells stably expressing CXCR2; assay type: cell-based; settings: 9a 500 nM
Description: For live cell microscopy, HEK293 cells stably expressing CXCR2 were seeded onto poly-D-lysine (PDL)-coated 8-well μ-slides (Ibidi) at a density of 1.5 × 10^5 cells per well and cultured overnight at 37 °C and 5% CO2. […] Afterward, the fluorescent CXCR2 ligand ((9a) final concentration 500 nM) was added for 60 min at 37 °C, and the cells were washed once with PBS before imaging. For immunostaining, the cells were first fixed with 4% paraformaldehyde solution, washed with PBS, and then blocked for 1 h with 10% goat serum and 1% fatty acid-free bovine serum albumin (BSA) in PBS at 37 °C. As primary antibody, anti-CXCR2 mouse IgG (R&D Systems, catalog # 48311, 1:100 in blocking solution) was added, and the cells were incubated for 1 h at 37 °C. After three washes with PBS, goat anti-mouse IgG (H+L) conjugated to FITC (Sigma-Aldrich, catalog # AP124F, 1:500 in blocking solution) was added for 1 h at 37 °C. The cells were again washed three times with PBS and counterstained with 4′,6-diamidin-2-phenylindole (DAPI) solution (0.1 μg/mL) for 15 min in the dark at room temperature, followed by three washes with PBS. […] Afterward, the fluorescent CXCR2 ligand ((9a) final concentration 500 nM) was added for 30 min at 37 °C and the cells were imaged. Microscopy was carried out on an AxioObserver.Z1 microscope (Carl Zeiss, Jena, Germany) equipped with an ApoTome imaging system and a Heating unit XL S using a Plan-Apochromat ×63/1.40 Oil objective (filter set 43 (red), 38 (green), 49 (blue)). Image processing and line scan analysis were performed with Zen blue Imaging software. The fluorescence intensity values were normalized to vehicle control.

[3] = molecular target: T1, CXCR2; assay: Live cell NanoBRET competition binding with 9a; settings: competition with 9a (50 nM), live HEK293T cells expressing CXCR2_Nluc
Description: HEK293T cells were transfected with the plasmid (5.5 μg) for CXCR2_Nluc using polyethylenimine (PEI) as transfection reagent (PEI/DNA ratio 3:1). After 24 h at 37 °C and 5% CO2, the cells were detached with DMEM and transferred to a white F-bottom 384-well plate (10,000 cells/well), which was coated with 5 μL/well poly-D-lysine (0.1 mg/mL, dissolved in water), and incubated for further 24 h at 37 °C and 5% CO2. Subsequently, the cells were washed with phosphate-buffered saline (Gibco DPBS, with CaCl2 and MgCl2). The assay medium (Gibco DMEM/F12, 15 mM HEPES, no phenol red supplemented with 5% FBS) was added and the cells were incubated at 37 °C for 30 min. […] To determine nonspecific binding, 5 μL of a solution of 3 dissolved in the assay medium (final assay concentration: 10 μM) were added.
Total, nonspecific and specific binding, which was calculated as a difference of total and nonspecific binding, were analyzed using the algorithms for one-site saturation binding in PRISM9.5 (GraphPad). To determine the inhibition constants (Ki) of the potential competitors, data were normalized to total and nonspecific binding and analyzed using the one-site-fit Ki equation in PRISM9.5 (GraphPad).

[4] = molecular target: T1, CXCR2; assay: Membrane-based NanoBRET competition assay with 9a; assay type: binding; settings: competition with 9a (50 nM), CXCR2_Nluc membranes
Description: Then, 20 μL of the membrane preparation (diluted in assay buffer, 2 μg total protein/well) was added and the plates were incubated for 90 min at 37 °C. Subsequently, 5 μL of a furimazine solution (final assay dilution: 1:5000 in the assay buffer) was added to each well (final assay volume: 35 μL). […] To determine the inhibition constants (Ki) of the nonlabeled ligands, data were analyzed using the one-site-fit Ki equation in PRISM9.5 (GraphPad).

residence time [1]: 474 ± 59 min | Ki ([3]; read-out: Ki): 0.011 nM | Ki ([3]; read-out: pKi (converted)): 0.00933 nM | Ki ([4]; read-out: Ki): 0.09 nM | Ki ([4]; read-out: pKi (converted)): 0.0794 nM
SMILES: Cc1ccc([C@H](Nc2c(Nc3cccc(C(=O)N(C)C)c3O)c(=O)c2=O)C(C)(C)C)o1 [compound 3]
effect of preincubation on membrane-associated 9a fluorescence ([2]; fixed HEK293 cells stably expressing CXCR2, competitor 10 μM): virtually blunted all membrane-associated probe fluorescence | effect of preincubation on membrane-based 9a fluorescence ([2]; live cell imaging, HEK293 cells stably expressing CXCR2, competitor 10 μM): very strong reduction in membrane-based fluorescence
